Data reported in ChEMBL document CHEMBL3627687, “Sesquiterpenes from Carpesium macrocephalum inhibit Candida albicans biofilm formation and dimorphism” (Bioorg Med Chem Lett, 2015).
Converted amounts (≈) assume the structure as drawn.

Legend:
Candida albicans [1] = test: Antifungal activity against Candida albicans SC5314 assessed as inhibition of biofilm formation by XTT assay; assay type: functional, organism-based
Candida albicans [2] = test: Antifungal activity against Candida albicans SC5314 assessed as inhibition of yeast cell to hyphae transition after 4 hrs by microscopic analysis; assay type: functional, organism-based; settings: SC5314, 4 h
Candida albicans [3] = test: Antifungal activity against Candida albicans SC5314 by CLSI standard M27-A3 method; assay type: functional

Row | SMILES | IC50 (Candida albicans [1]) [µg/mL] | IC50 (Candida albicans [2]) [µg/mL] | MIC50 (Candida albicans [3]) [µg/mL]
1 | OC(Cn1cncn1)(Cn1cncn1)c1ccc(F)cc1F [FLUCONAZOLE] | 2 (≈ 6.53 µM) | – | –
2 | C=C1C(=O)O[C@@H]2C[C@@]3(C)CCC[C@H](C)[C@@]34O[C@H]4[C@H]12 | > 128 | 118 (≈ 477 µM) | –
3 | C=C1C(=O)O[C@@H]2C[C@H](C)C(CCC(C)O)=CC[C@H]12 (stereo not given in full) | > 128 | > 128 | –
4 | C=C1C(=O)O[C@@H]2C[C@]3(C)[C@@H](CCC(C)=O)[C@@H]3C[C@H]12 | > 128 | 100 (≈ 403 µM) | –
5 | C=C(C(=O)O)[C@@H]1CC[C@@]2(C)CCC=C(C)C2C1 (stereo not given in full) | > 128 | > 128 | –
6 | C=C1C(=O)O[C@@H]2C[C@@]3(C)C[C@@H](O)CC(=C)[C@@H]3C[C@H]12 [IVALIN] | 15.4 (≈ 62 µM) | > 128 | –
7 | C=C1C(=O)O[C@@H]2C[C@@]3(C)CCCC(=C)[C@]3(O)C[C@H]12 [TELEKIN] | 36 (≈ 145 µM) | > 128 | –
8 | C=C1C(=O)O[C@H]2C[C@H](C)[C@@H]3CC[C@@]4(C)O[C@@]34C[C@H]12 | 38 (≈ 153 µM) | 106 (≈ 429 µM) | –
9 | C=C1C(=O)O[C@@H]2C[C@H](C)C(CCC(C)=O)=CC[C@H]12 [TOMENTOSIN] | > 128 | 31.6 (≈ 127 µM) | 128 (≈ 515 µM)
10 | C=C1C(=O)O[C@@H]2C[C@H](C)C(CCC(C)OC(=O)C(C)CC)=CC[C@H]12 (stereo not given in full) | > 128 | 105 (≈ 314 µM) | –
